The results in this text go back to PubChem BioAssay (NCI).

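Each compound was tested at five concentrations against cells in 96-well plates for 48 hours. Here, GI50 denotes the concentration required for 50% inhibition of growth. TGI: total growth inhibition.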

Among the test systems are MDA-MB-435; NCI/ADR-RES ovarian; T-47D breast; MDA-N; LXFL 529 NSCLC; M19-MEL melanoma.
What all share (test): inhibition of tumour cell growth, NCI panel, 48 h

Consider `Nc1c(S(=O)(=O)O)cc2c(c1Cl)C(=O)c1ccccc1C2=O`, for which the GI50 in the test on MDA-MB-435, in the test with NCI/ADR-RES ovarian and in the test with T-47D breast was > 100 µM in each case. In addition, the TGI in the test with MDA-MB-435, in the test on NCI/ADR-RES ovarian and with T-47D breast was > 100 µM in each case.

`COC(=O)/C=C/c1cc(OC)c2c(c1)[C@@H](C(=O)OC)[C@H](c1ccc(OC)c(OC)c1)O2`: the GI50 is 0.768 µM in the test with NCI/ADR-RES ovarian and 4.99 µM with T-47D breast. Besides, the TGI with NCI/ADR-RES ovarian and in the test on T-47D breast was > 100 µM in each case.

Turning to `COc1ccc(-c2nn(C(=O)c3cc(OC)c(OC)c(OC)c3)c3cc(N)ccc23)cc1`, the GI50 was < 0.01 µM in the test with MDA-MB-435, < 0.01 µM in the test with NCI/ADR-RES ovarian and 2.17 µM with T-47D breast. The figures for the TGI in the test on NCI/ADR-RES ovarian and with T-47D breast were 2.28 µM and 7.58 µM, respectively.

Take `COc1cc(C2C(Cl)C(=O)N2NC(=O)c2ccccc2O)cc(OC)c1OC` (centres undefined): the TGI with MDA-MB-435 was > 10 µM.

With `CCCCCCOc1ccc(/C=N/Nc2cc(C)nc3ccc(Br)cc23)cc1`, the GI50 in the test on MDA-MB-435 was 1.73 µM; with NCI/ADR-RES ovarian, 1.9 µM; in the test on T-47D breast, 1.82 µM. Also, the TGI in the test with MDA-MB-435 was determined as 3.16 µM; with NCI/ADR-RES ovarian, 3.84 µM; in the test with T-47D breast it was 3.72 µM.

In the case of `c1ccc(Oc2cnc3ccccc3n2)cc1`, the GI50 in the test on MDA-MB-435 was > 100 µM; in the test with NCI/ADR-RES ovarian it was > 100 µM; with T-47D breast, 75.5 µM. Further, the TGI with MDA-MB-435, in the test with NCI/ADR-RES ovarian and in the test with T-47D breast was > 100 µM each time.

Consider `COC(=O)c1cccc(COc2ccc([N+](=O)[O-])cc2Cl)c1`, for which the TGI with MDA-MB-435, in the test with NCI/ADR-RES ovarian and with T-47D breast was > 100 µM each time.

Consider `COc1ccccc1NC(=O)C(=O)C(C#N)CC(C)(C)C=O` (centres undefined), for which the TGI with MDA-MB-435, in the test with NCI/ADR-RES ovarian, in the test on MDA-N and with T-47D breast was > 100 µM each time.

`COc1ccc2nc3c(cc2c1)C(=O)CC(C(F)(F)F)C3` (centres undefined): in the test on NCI/ADR-RES ovarian, the GI50 was 0.367 µM and the TGI is > 100 µM. Further, in the test with T-47D breast, the GI50 is 3.7 µM and the TGI was > 100 µM.

For the compound `CC(=O)SC(C[N+](=O)[O-])c1ccccc1` (centres undefined), the TGI is 6.08 µM in the test on MDA-MB-435, 55.1 µM in the test with NCI/ADR-RES ovarian, 9.77 µM in the test with MDA-N and > 71.3 µM in the test on T-47D breast.

As for `CC(=O)O[C@H]1CC[C@@]2(C)[C@@H](CC[C@@H]3[C@@H]2CC(=O)[C@@]2(C)[C@H]3C[C@@H]3CC(C)=CC(=O)[C@@H]32)C1`, the TGI in the test on MDA-MB-435, in the test with NCI/ADR-RES ovarian, in the test on MDA-N and with T-47D breast was > 100 µM each time.

`Cc1nc(N(C)C)nc(-c2cccc(-c3ccn(CCN(C)C)n3)c2)c1C`: the GI50 in the test with MDA-MB-435, in the test on NCI/ADR-RES ovarian and in the test with T-47D breast was > 20 µM in each case. Also, the TGI with MDA-MB-435, in the test with NCI/ADR-RES ovarian and in the test with T-47D breast was > 20 µM in each case.

Turning to `O=C(O)c1cccc(F)c1C(=O)c1ccc2ccccc2c1`, the TGI in the test on MDA-MB-435, in the test with NCI/ADR-RES ovarian, in the test on MDA-N and in the test on T-47D breast was > 100 µM each time.

Take `CCCCCCCCCCCC(=O)[O][Sn]([CH2]CCC)([CH2]CCC)[CH2]CCC`: in the test on MDA-MB-435, the GI50 was 0.0553 µM and the TGI came to 0.15 µM. In the test with NCI/ADR-RES ovarian, the GI50 is 0.0703 µM and the TGI came out at 0.236 µM.

For the compound `CCOc1ccc(-n2cc(-c3ccc(N(C)C)cc3)[n+]3c2CCCCC3)cc1`, the values for the GI50 in the test with MDA-MB-435, in the test with NCI/ADR-RES ovarian and with T-47D breast were 0.217 µM, 31.1 µM and 0.0692 µM, respectively. Besides, the TGI in the test with MDA-MB-435 was 14.4 µM; in the test on NCI/ADR-RES ovarian, > 100 µM.

`c1ccc2c(c1)-c1nc3ccccc3cc1C2N1CCOCC1` (centres undefined): the TGI in the test on MDA-MB-435, with NCI/ADR-RES ovarian, in the test with MDA-N and in the test on T-47D breast was > 100 µM in each case.

Take `Nc1ncnc2c1c(-c1ccc(Oc3ccccc3)cc1)nn2C[C@H]1SSC[C@H]1O`: the GI50 in the test with MDA-MB-435 is 0.0255 µM; in the test on NCI/ADR-RES ovarian, 1.77 µM; in the test on T-47D breast, 0.205 µM. Moreover, the TGI in the test on MDA-MB-435 amounted to 0.0736 µM; in the test on NCI/ADR-RES ovarian it was 4.87 µM; with T-47D breast, 0.518 µM.

On to `COc1ccc(-n2cc(-c3ccc(F)cc3)[nH]c2=O)cc1OC`, for which the GI50 in the test with MDA-MB-435, with NCI/ADR-RES ovarian and in the test with T-47D breast was > 100 µM throughout. The TGI in the test on MDA-MB-435, with NCI/ADR-RES ovarian and in the test with T-47D breast was > 100 µM each time.

In the case of `OC(c1cc2c(Cl)cc(Cl)cc2c2cc(C(F)(F)F)ccc12)C1CCCCN1` (centres undefined), in the test on MDA-MB-435, the GI50 was 2.14 µM and the TGI was found to be 4.75 µM. Also, in the test with NCI/ADR-RES ovarian, the GI50 is 1.77 µM and the TGI was 3.64 µM.

In the case of `Cc1cc(=O)[nH]c2c1C(=O)C(=O)C=C2`, the GI50 was 15.1 µM in the test with MDA-MB-435, 18.4 µM with NCI/ADR-RES ovarian and 58.6 µM in the test on T-47D breast. Further, the TGI is 33.2 µM in the test with MDA-MB-435, 40.7 µM in the test with NCI/ADR-RES ovarian and > 100 µM in the test on T-47D breast.

Consider `Cn1cc(C2=C(c3cn(CCCN/C(N)=N\[N+](=O)[O-])c4ccccc34)C(=O)NC2=O)c2ccccc21`, for which the GI50 was 3.01 µM in the test with MDA-MB-435, > 25 µM in the test on NCI/ADR-RES ovarian and 2.01 µM with T-47D breast. Moreover, the TGI was 7.73 µM in the test with MDA-MB-435, > 25 µM in the test on NCI/ADR-RES ovarian and > 14.8 µM in the test on T-47D breast.

In the case of `Cc1cccc(C)c1NC(=O)/C(CC(=O)CC(c1ccccc1)c1c(O)c2ccccc2oc1=O)=N/O` (centres undefined), the TGI with MDA-MB-435, in the test on NCI/ADR-RES ovarian and in the test on MDA-N was > 100 µM in each case.

Take `O=C(Nc1ccc(-n2cc(-c3ccncc3)c(-c3ccc(Cl)c(O)c3)n2)cc1)c1ccc(Cl)c(C(F)(F)F)c1`: the GI50 in the test with MDA-MB-435 is 1.45 µM; in the test on NCI/ADR-RES ovarian, 2.77 µM; with T-47D breast, 3.03 µM. The results for the TGI in the test with MDA-MB-435, in the test on NCI/ADR-RES ovarian and in the test on T-47D breast were 13.1 µM, > 100 µM and > 34.9 µM, respectively.

Consider `COc1ccc2c(c1)[n+](=O)c(C(=O)C/C(=N\NC(=O)C[N+](C)(C)C)C(=O)Nc1cc(Cl)ccc1Cl)c(C)n2O`, for which the TGI in the test with LXFL 529 NSCLC and in the test on M19-MEL melanoma was > 100 µM each time.

For `COc1ccc2c(c1)cn1c3ccc(OC)cc3[nH]c(=O)c21`, the GI50 in the test on MDA-MB-435 is < 0.01 µM; in the test with NCI/ADR-RES ovarian, < 0.01 µM; in the test on T-47D breast, 1.04 µM. Besides, the TGI in the test on MDA-MB-435 worked out at 0.0116 µM; with T-47D breast, 2.61 µM.
